Laboratory results: patent US5494925A, “2-heterocyclyloxymethyl and 2-heterocyclylthiomethyl-1,2,5-thiadiazolidin-3-one 1,1-dioxides and compositions and method of use thereof” (Sterling Winthrop Inc., priority 1994, dated 1996)

biological target: T1, human leukocyte elastase (Homo sapiens, UniProt P08246); test: human leukocyte elastase inhibition, progress curves with MeOSuc-Ala-Ala-Pro-Val-pNA; assay type: biochemical; details: HLE; substrate MeOSuc-Ala-Ala-Pro-Val-pNA; pH 7.8, 25° C.; 410 nM absorbance; read-out: inhibition constant Ki
T1 sequence (P08246 30-267): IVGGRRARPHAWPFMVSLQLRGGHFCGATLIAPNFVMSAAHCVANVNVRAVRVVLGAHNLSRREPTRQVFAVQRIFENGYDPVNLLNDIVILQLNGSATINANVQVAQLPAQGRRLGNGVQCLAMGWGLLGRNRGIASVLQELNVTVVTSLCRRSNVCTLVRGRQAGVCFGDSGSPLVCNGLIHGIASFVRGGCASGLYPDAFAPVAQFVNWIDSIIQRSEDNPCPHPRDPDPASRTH
Procedure: The test compound (inhibitor) is dissolved in DMSO in a vial to produce an inhibitor stock solution which has a concentration in the range of 200-1000 μM. The inhibitor stock solution is diluted (1:4, 1:16 and 1:64) into assay vials (vials 1, 2 and 3 respectively) containing 2.4 mL of buffer solution (50 mM N-[2-hydroxyethyl]piperazine-N'-[2-ethanesulfonic acid]/NaOH, 500 mM NaCl, pH 7.8 at 25° C.) and DMSO is added so that the total volume in each vial is 3.2 mL. 70 μL, 50 μL, 35 μL and 25 μL of inhibitor from assay vial 1 is placed into the first four wells of a 96-well microtiter plate and each well is made up to 90 μL total volume with the addition of a 25% DMSO/buffer solution. The inhibitor from assay vials 2 and 3 is processed in a similar manner and placed in wells 5-12 respectively to afford a total of 12 different inhibitor concentrations. Four wells (wells 13-16) containing 90 μL of the 25% DMSO/buffer solution but no inhibitor are also run simultaneously with the inhibited wells as a control. 150 μL of substrate solution (prepared by the addition of 500 μL of the human leukocyte elastase (HLE) substrate MeOSuc-Ala-Ala-Pro-Val-pNA (18.7 mM in DMSO) to 19.5 mL of buffer solution) is then added simultaneously into each of the 16 wells and the solution in each well was thoroughly mixed.
The 96-well microtiter plate is placed into a Microplate Reader #89815A spectrophotometer and 110 μL of the enzyme solution (prepared as follows: a mixture of 20 mL of buffer solution and 20 mg of bovine serum albumen is gently vortexed in a scintillation vial and 5 μL HLE stock solution (1 mg/mL dissolved in deionized water) is added) is added simultaneously to each of the 16 wells. Each of the solutions in the wells is thoroughly mixed and then the time-dependent absorbance data is collected at an absorbance of 410 nm until the assay is complete. It should be noted that although this assay method can be done manually, it is preferred to perform the assay robotically using a Hewlett Packard MicroAssay System Robot.
A plot of the absorbance versus time data thus obtained affords progress curves the final slope of which is equal to the final steady-state velocities (VF). Using the program ENZFITTER (Elsevier software), the progress curves for the four control assays ([I]=0) are fit by linear regression to yield the enzyme reaction velocity values in the absences of inhibitor (Vo) which are averaged to produce a single fixed value. The inhibition constant Ki (nM) is then obtained from a plot of [formula] which affords a linear plot wherein: [formula] and [S] is the concentration of the substrate and Km is the Michaelis constant.
Table V summarizes the results obtained from the testing of representative compounds of the invention for human leukocyte elastase inhibitory activity.

Compound | Ki
O=C1C2CCCCN2S(=O)(=O)N1CSc1nnnn1-c1ccccc1 (centres unmarked) [18 (f), 2-(1-phenyl-1H-tetrazol-5-yl-thiomethyl)-1,2,5-thiadiazolo [2,3-a]3,3a,4,5,6,7-hexahydropyridine-3-one 1,1-dioxide] | 0.085 µM
CC(C)CCC1C(=O)N(COc2cc(C(F)(F)F)nn2-c2ccccc2)S(=O)(=O)N1C (centres unmarked) [6 (j), 2-(1-phenyl-3-trifluoromethyl-pyrazol-5-yloxymethyl)-4-(3-methylbutyl)-5-methyl-1,2,5-thiadiazolidin-3-one 1,1-dioxide] | 0.0024 µM
O=C1C2CCCN2S(=O)(=O)N1CSc1nnnn1-c1ccccc1 (centres unmarked) [19 (f), 2-(1-phenyl-1H-tetrazol-5-yl-thiomethyl)tetrahydropyrrolo[1,2-b]-1,2,5-thiadiazol-3 (2H)-one 1,1-dioxide] | 0.54 µM

More lines, now with the values ahead:

Ki | Compound
0.2 µM | CC(C)C1C(=O)N(CSc2nnnn2-c2ccccc2)S(=O)(=O)N1C (centres unmarked) [4 (f), 2-(1-phenyl-1H-tetrazol-5-yl-thiomethyl)-4-isopropyl-5-methyl-1,2,5-thiadiazolidin-3-one 1,1-dioxide]
0.011 µM | CCCC1C(=O)N(CSc2nnnn2-c2ccccc2)S(=O)(=O)N1CC (centres unmarked) [5 (i), 2-(1-phenyl-1H-tetrazol-5-yl-thiomethyl)-4-propyl-5-ethyl-1,2,5-thiadiazolidin-3-one 1,1-dioxide]
0.18 µM | CCCC1NS(=O)(=O)N(CSc2nnnn2-c2ccccc2)C1=O (centres unmarked) [1 (f), 2-(1-phenyl-1H-tetrazol-5-yl-thiomethyl)-4-propyl-1,2,5-thiadiazolidin-3-one 1,1-dioxide]
3 µM | CC(C)C1NS(=O)(=O)N(CSc2nnnn2-c2ccccc2)C1=O (racemic) [2 (f), 2-(1-phenyl-1H-tetrazol-5-yl-thiomethyl)-4-isopropyl-1,2,5-thizdizolidin-3-one 1,1-dioxide]
0.0036 µM | CCCC1C(=O)N(CSc2nnnn2-c2ccccc2)S(=O)(=O)N1C (centres unmarked) [3 (h), 2-(1-phenyl-1H-tetrazol-5-yl-thiomethyl)-4-propyl-5-methyl-1,2,5-thiadiazolidin-3-one 1,1-dioxide]
